Columns and labels:
[1] = tested on: human adipocyte cells; experiment: Membrane integrity: LDH release from human adipocytes (LDH assay); format: cell-based; conditions: Example 1, 48 hrs, relative to Triton-x 100 maximal LDH release
Experimental: (§1) HWP were obtained in passage two and differentiated in vitro to mature adipocytes. Briefly, cells were initially cultured in preadipocyte growth medium at 37° C. and 5% CO2 to 70-80% confluency. Then, cells were seeded at 40,000 cells/ml into 96-well flat bottom tissue culture plates and incubated overnight to allow attachment. Differentiation was initiated by changing the medium to preadipopcyte differentiation medium for an additional 72 hrs. After differentiation was induced, the medium was replaced by adipocyte nutrition medium that was refreshed every 2-3 days over a period of 14 days until termination of differentiation. Differentiation status was checked via nile red staining of control cells.
(§2) For the cytotoxicity assays in this study pre-adipocytes were seeded at 40,000 cells/ml into a 96-well microtiter flat bottom plate. The test items were prepared in separate plates starting with the double concentrated maximal test concentration followed by a 1:2 serial dilution (Chloroquine and Fluoxetine 1:3) and then added to the cells. The test items were tested at 6 replicates/concentration. Each plate included negative controls (media plus solvent, 6 replicates), a drug interference control (all concentrations, duplicates), a background control (14 replicates), a positive (=cytotoxic) control (6 replicates doxorubicin, 1 μM final) and a positive control for maximal LDH-release (2 replicates, 2% Triton-x 100 final).
(§3) Relative cell viability was determined after 48 hrs exposure based on metabolic activity (i.e. resazurin conversion). Using a Victor^3 1420 Multilabel Counter, the resazurin conversion to the fluorescent resorufin by metabolically active cells was recorded at 560Ex/590Em. Membrane integrity was measured after 6 hrs and 48 hrs and the enzymatic activity of released LDH in the cell supernatant after 30 min of incubation at 492 nmabsorption/690 nmreference by a spectrophotometer. The volume withdrawn from the cultures for the LDH-assay was not replaced to keep cells in a less disturbed environment. The assay was conducted in a multiplexed format.
For the dose-response relationship, absolute absorption (OD treated wells−background) was plotted against the test item concentrations representing LDH leakage from the cells. For a better estimation of the test items' potential influencing the membrane integrity, relative, maximal LDH release in percent (see Table 2) was also calculated according to the following formula: […]
(§4) The effects on cytotoxicity in human adipocyte cells of a further 9 compounds were tested. The experimental set-up was identical to the one in example 1.

[2] = Precipitation of test item in cytotoxicity assay media; format: physicochemical; conditions: above 500 μM
Experimental: (§5) The test items 1 to 8 were prepared according to Table 1 to yield respective stock solutions. Said stock solutions were further diluted in assay media to obtain the double concentrated working solutions, which were subsequently diluted 1:2 in the final assay. […] Deoxycholate Na was selected as “reference compound”.

[3] = tested on: Human white adipocytes; experiment: Apoptosis/necrosis detection, Annexin V-FITC/PI flow cytometry; format: cell-based
Text: The apoptotic program is characterized by certain morphologic features. Loss of plasma membrane asymmetry is a well established indicator for apoptotic cells. In apoptotic cells, the membrane phospholipid phosphatidylserine (PS) is translocated from the inner to the outer leaflet of the plasma membrane, thereby exposing PS to the external environment. In general, this PS translocation is preceded by caspase activation. Annexin V labelled with FITC is a Ca^2+ dependent phospholipid-binding protein with high affinity for PS and binds to cells with externalized PS. Cells stained with Annexin V*FITC are therefore considered in an early apoptotic stage.
Staining with Annexin V-FITC is typically used in conjunction with a vital dye such as propidium iodide (PI) to allow discrimination between early apoptotic and necrotic cells. Necrotic dying cells are PI positive only. Cells that are viable are Annexin V and PI negative; cells that entered apoptosis are Annexin V positive and PI negative and cells that are in post apoptotic and/or necrotic phase are both Annexin V and PI positive.
Human white adipocytes that had been differentiated in vitro from pre-adipocytes as describe above were used. Measurements were performed after 5 hrs to catch early apoptotic/necrotic events and after 24 hrs and 48 hrs for later stages. Naringenin at 500 μM (reported to induce apoptosis in adipocytes) was used as positive control and media plus solvent was used as negative control. Each compound was tested in three different concentrations. […] Two more concentrations, one below and one above the IC50 were added.
Flow cytometry was performed with a dual laser FC500. After completion of the staining procedure, tubes were grouped into a FC500 carousel for semi-automated data acquisition. Cells were first acquired in “Setup” mode to tune the parameters FS, SS, FL1 and FL2. After completion of the setup, baseline compensation was switched on and cells were acquired. Cells were acquired without life-gate but using FS threshold to exclude debris. All cells were acquired using individually corrected settings.
After completion of data acquisition, analysis was done using the CXP software. If necessary, software-based post acquisition compensation was performed to fine-correct for fluorescence overlap not adjusted for during the acquisition phase. Quadrant markers were set based on the negative controls.

[4] = tested on: human adipocyte cells; experiment: Cytotoxicity assay: metabolic activity (resazurin conversion) of human adipocytes; format: cell-based; conditions: read-out: IC50 (metabolic activity after 48 hrs); Example 1, 48 hrs exposure, resazurin
Experimental: as §1, §5, §2, §3
In order to derive meaningful IC50 values from the primary data, the entire biological window of activity ranging from 0% to 100% viability should be covered and the resolution has to be sufficient. To improve data quality, the serial dilution factor used in previous experiments was reduced to a 1:2 and 1:3 dilution. […] IC50 (half maximal inhibitory concentration, calculated via Sigma Plot 10) values were determined for each test substance 1 to 8.
as §4

## CC(=O)N1CCN(c2ccc(OCC3COC(Cn4ccnc4)(c4ccc(Cl)cc4Cl)O3)cc2)CC1 (centres unmarked) [Test substance 5, Ketoconazole]
[1]
  Rel. max. LDH release [%] 48 hrs: 92.2%
[2]
  precipitation in assay media: generation of insoluble precipitates at higher concentrations
[3]
  primary mode of cell death: Apoptosis can be considered primary mode of cell death at the lower concentration range with necrosis taking place later at higher concentrations
[3]; 60 μM, 5 hrs
  Early Apoptosis [A-V*/PI*]: 26.5
  Necrosis/ Late Apoptosis [A-V*/PI*]: 1.4
  Normal [A-V*/PI]: 72.1
[3]; 60 μM, 24 hrs
  Early Apoptosis [A-V*/PI*]: 19.5
  Necrosis/ Late Apoptosis [A-V*/PI*]: 2.6
  Normal [A-V*/PI]: 77.9
[3]; 60 μM, 48 hrs
  Early Apoptosis [A-V*/PI*]: 9.1
  Necrosis/ Late Apoptosis [A-V*/PI*]: 3.8
  Normal [A-V*/PI]: 87.1
[3]; 80 μM, 5 hrs
  Early Apoptosis [A-V*/PI*]: 34
  Necrosis/ Late Apoptosis [A-V*/PI*]: 2.2
  Normal [A-V*/PI]: 63.8
[3]; 80 μM, 24 hrs
  Early Apoptosis [A-V*/PI*]: 22.7
  Necrosis/ Late Apoptosis [A-V*/PI*]: 17.9
  Normal [A-V*/PI]: 59.4
[3]; 80 μM, 48 hrs
  Early Apoptosis [A-V*/PI*]: 18.5
  Necrosis/ Late Apoptosis [A-V*/PI*]: 44.9
  Normal [A-V*/PI]: 36.6
[3]; 100 μM, 5 hrs
  Early Apoptosis [A-V*/PI*]: 23.6
  Necrosis/ Late Apoptosis [A-V*/PI*]: 3.1
  Normal [A-V*/PI]: 73.3
[3]; 100 μM, 24 hrs
  Early Apoptosis [A-V*/PI*]: 16.9
  Necrosis/ Late Apoptosis [A-V*/PI*]: 82.6
  Normal [A-V*/PI]: 0.5
[3]; 100 μM, 48 hrs
  Early Apoptosis [A-V*/PI*]: 36.9
  Necrosis/ Late Apoptosis [A-V*/PI*]: 52.5
  Normal [A-V*/PI]: 0.5
[3]; 5, 24, 48 hrs, concentrations as in Table 4
  apoptosis/necrosis induction in human adipocytes (in words): caused apoptosis after 5 hrs at 60, 80, and 100 μM increasing over time
[4]
  IC50: 78 µM

Reference: patent US20130143869A1, “USE OF A CATIONIC AMPHIPHILIC DRUG FOR THE PREPARATION OF A FORMULATION FOR THE REDUCTION OF SUBCUTANEOUS ADIPOSE TISSUE” (Merz Pharma GmbH & CO. KGaA, priority 2010, published 2013)
